Measurements reported in patent publication US20030068322A1, “Methods of antibody-directed enzyme-prodrug therapy” (IMMUNOMEDICS, INC., priority 1988, published 2003).

Assays:
[1] = biological target: T1, human beta-D-glucuronidase (Homo sapiens, UniProt P08236); conditions: Arcamone, Cancer Res. 45:5995 (1985); cited from earlier work
T1 sequence (P08236 23-651): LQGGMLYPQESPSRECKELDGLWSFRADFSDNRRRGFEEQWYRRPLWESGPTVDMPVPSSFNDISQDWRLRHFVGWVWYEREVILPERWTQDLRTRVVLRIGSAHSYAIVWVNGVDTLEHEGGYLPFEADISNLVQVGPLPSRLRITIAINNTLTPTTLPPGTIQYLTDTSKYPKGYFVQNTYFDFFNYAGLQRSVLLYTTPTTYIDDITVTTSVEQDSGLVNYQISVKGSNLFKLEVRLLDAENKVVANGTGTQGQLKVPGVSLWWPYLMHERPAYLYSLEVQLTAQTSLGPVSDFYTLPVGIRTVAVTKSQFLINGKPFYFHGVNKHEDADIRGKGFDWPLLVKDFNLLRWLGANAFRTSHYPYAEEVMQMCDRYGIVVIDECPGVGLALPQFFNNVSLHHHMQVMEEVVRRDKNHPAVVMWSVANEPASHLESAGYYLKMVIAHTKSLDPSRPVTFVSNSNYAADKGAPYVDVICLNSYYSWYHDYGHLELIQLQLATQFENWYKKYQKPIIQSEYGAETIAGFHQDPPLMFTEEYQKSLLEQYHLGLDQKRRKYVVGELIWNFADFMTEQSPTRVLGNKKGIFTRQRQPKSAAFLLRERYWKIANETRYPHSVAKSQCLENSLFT

[2] = versus CPT-11; cited from earlier work
lymphoma = experiment: Therapy of lymphoma in a human patient; assay type: in vivo; conditions: 10 mg i.v. on each of 4 days after anti-lymphoma IgG-glucuronidase conjugate
Procedure: A human patient suffering from lymphoma is infused intravenously with a sterile, pyrogen-free PBS solution containing 5 mg of an anti-lymphoma IgG-glucuronidase conjugate prepared according to the example above, and labeled with I-131. […] The patient is then infused intravenously with a sterile, pyrogen-free PBS solution containing 10 mg of epirubicin glucuronide, prepared according to the example above, on each of the next 4 days.

For `COc1cccc2c1C(=O)c1c(O)c3c(c(O)c1C2=O)C[C@@](O)(C(=O)CO)C[C@@H]3O[C@H]1C[C@H](N)[C@@H](O)[C@H](C)O1` [epirubicin], the “substrate for human beta-D-glucuronidase” value [1] is given as “has been shown to be a substrate”.

For `CCc1c2c(nc3ccc(O)cc13)-c1cc3c(c(=O)n1C2)COC(=O)[C@]3(O)CC` [SN-38], the “toxicity relative to CPT-11” value [2] is given as “at least one hundred-fold more toxic”.

In the case of `COc1cccc2c1C(=O)c1c(O)c3c(c(O)c1C2=O)C[C@@](O)(C(=O)CO)C[C@@H]3O[C@H]1C[C@H](N)[C@@H](O[C@@H]2O[C@H](C(=O)O)[C@@H](O)[C@H](O)[C@H]2O)[C@H](C)O1` [epirubicin glucuronide], the “reduction in lymphoma by radioimmunodetection” value (lymphoma) is reported as “significant reduction in the lymphoma”.
